Values quoted from earlier work in patent US20190100806A1, “MARKER FOR PREDICTING TREATMENT RESPONSE TO ANTI-CANCER AGENT IN SOLID CANCER PATIENTS” (DAEWOONG PHARMACEUTICAL CO., LTD., priority 2016, published 2019).

Key:
[1] = tested on: PC-3 (human prostate cancer) cells; settings: PC-3 cells, PTEN-deficient; read-out: median effective concentration (EC50)
[2] = tested on: RAC serine/threonine-protein kinase (Akt) phosphorylation; settings: mouse models xenografted with human PTEN-deficient tumor cells
[3] = tested on: Akt phosphorylation (Ser473); settings: single dose, mouse model xenografted with PC-3 cells
[4] = tested on: HCC70 (human breast ductal carcinoma) cells; settings: PTEN-deficient, read-out: median effective concentration (EC50)

- EC50 [1]: 36 nM
Compound: Cc1c(Cn2c(C)nc3c(C(=O)O)cc(N4CCOCC4)cc32)cccc1C(F)(F)F [GSK-2636771]
- phosphorylation of Akt [2]: inhibits the phosphorylation of RAC serine/threonine-protein kinase (Akt) in a dose-dependent manner
- Akt phosphorylation (Ser473) [3]: reduce Akt phosphorylation (Ser473)
- EC50 [4]: 72 nM
